Source: US20240150346A1, “CLASS OF HETEROAROMATIC COMPOUND, PREPARATION METHOD THEREFOR AND USE THEREOF” (INNOVSTONE THERAPEUTICS LIMITED, priority 2021, published 2024)

Target: T1, human-derived receptor TLR7 (Homo sapiens, UniProt Q9NYK1)
T1 construct: host or cells: HEK-Blue hTLR7 cells (HEK293-derived reporter line)
T1 sequence (Q9NYK1 27-1049): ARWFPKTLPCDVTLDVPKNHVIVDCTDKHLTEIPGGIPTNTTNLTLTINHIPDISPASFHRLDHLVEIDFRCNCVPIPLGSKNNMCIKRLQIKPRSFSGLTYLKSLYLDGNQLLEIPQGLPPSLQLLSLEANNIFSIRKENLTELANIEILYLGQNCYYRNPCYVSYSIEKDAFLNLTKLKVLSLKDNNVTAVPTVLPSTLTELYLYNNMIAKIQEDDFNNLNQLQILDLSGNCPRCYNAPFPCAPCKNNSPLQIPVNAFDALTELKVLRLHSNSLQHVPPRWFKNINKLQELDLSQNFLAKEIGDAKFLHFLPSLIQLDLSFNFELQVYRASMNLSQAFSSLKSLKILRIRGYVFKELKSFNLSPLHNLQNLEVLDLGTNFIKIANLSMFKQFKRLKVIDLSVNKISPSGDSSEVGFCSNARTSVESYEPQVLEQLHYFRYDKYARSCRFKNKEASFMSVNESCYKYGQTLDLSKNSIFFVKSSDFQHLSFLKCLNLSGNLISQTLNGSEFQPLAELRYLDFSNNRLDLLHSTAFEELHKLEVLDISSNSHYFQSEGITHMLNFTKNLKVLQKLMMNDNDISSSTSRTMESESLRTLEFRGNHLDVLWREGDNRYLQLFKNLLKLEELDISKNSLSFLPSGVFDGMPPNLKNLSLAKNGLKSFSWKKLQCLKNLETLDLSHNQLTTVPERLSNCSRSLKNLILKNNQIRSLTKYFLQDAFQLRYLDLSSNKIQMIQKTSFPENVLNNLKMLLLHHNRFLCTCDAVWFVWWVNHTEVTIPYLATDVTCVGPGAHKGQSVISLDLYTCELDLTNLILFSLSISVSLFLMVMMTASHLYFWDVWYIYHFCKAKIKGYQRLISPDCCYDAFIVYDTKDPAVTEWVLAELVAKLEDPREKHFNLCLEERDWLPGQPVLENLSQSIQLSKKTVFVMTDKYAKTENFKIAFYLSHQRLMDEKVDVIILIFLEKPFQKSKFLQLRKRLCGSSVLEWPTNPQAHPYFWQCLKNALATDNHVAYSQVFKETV
Assay: Assay on agonistic activity for human-derived receptor TLR7 (HEK-Blue hTLR7 cells, HEK-Blue Detection Medium)
Type: cell-based
Details: 16 h incubation, absorbance at 655 nm, read-out: EC50
Method: HEK-Blue™ hTLR7 cells (InvivoGen, hkb-htlr7) were cultured in a DMEM complete medium (Gibco, 12100) containing 10% FBS (Invitrogen, 10099141), 1% P/S (Invitrogen, 15140122), 10 μg/mL Blasticidin (InvivoGen, ant-bl-1), 100 μg/mL Zeocin (InvivoGen, ant-zn-1), and 100 μg/mL Normocin (InvivoGen, ant-nr-1). The cells were cultured in an incubator at 37° C. with 5% CO2. When HEK-Blue™ hTLR7 cells reached a growth density of 70%-80%, cell passage was needed.
The agonistic activity for the human-derived receptor TLR7 by HEK-Blue™ hTLR7 cells was assayed by HEK-Blue™ Detection Medium (InvivoGen, hd-det2). First, a bag of HEK-Blue™ Detection Medium powder was dissolved in 50 mL of ultra-pure sterile water for complete dissolution, and then the dissolved medium was filtered into a new 50 mL centrifuge tube through a 0.22 μm filter. Finally, antibiotics were added into the filtered detection medium until the final concentration was 1% for P/S and 100 μg/mL for Normocin. HEK-Blue™ Detection Medium was pre-heated to 37° C. in advance on the day of the assay on the activity for the TLR7 receptor, and the temperature was always maintained at 37° C.
The compound powder was dissolved in 100% DMSO (Sigma, D2650-100ML) to obtain a 10 mM stock solution, and the compound was completely dissolved by shaking with an oscillator. The stock solution of the compound was subjected to a 5-fold dilution to 2 mM with 100% DMSO. This was followed by a 3-fold serial dilution for a total of 8 concentration gradients. Then, each of the concentration gradients was subjected to a 20-fold dilution to 100 μM, 33.3 μM, 11.1 μM, 3.7 μM, 1.23 μM, […], 0.114 μM, and 0.05 μM using HEK-Blue™ Detection Medium. 20 μL of each of the dilutions was added to a 96-well cell culture plate (Corning, 3599).
On the day of the assay on the agonistic activity for the human-detived receptor TLR7, HEK-Blue™ hTLR7 cells has a growth density of 70%-80%, and the cell medium was removed. 1 mL of cell dissociation buffer (Gibco, 13151-014) was added to each 100 mm cell culture dish, and the cells were incubated in an incubator at 37° C. for 5 min. The cells were pipetted using a DMEM cell medium to obtain a single cell suspension, which was then centrifuged at 1000 rpm for 10 min to collect the cell pellet. The cell pellet was resuspended with HEK-Blue™ Detection Medium pre heated to 37° C. The cells were counted and diluted to 220,000 cells/mL. Finally, 180 μL of cell suspension (40,000 cells/well) was added to each well of the 96-well cell culture plate to which the compound had been added, and the cell suspension was mixed with the compound using a pipettor. Final concentrations of the compound were 10 μM, 3.3 μM, 1.1 μM, 0.37 μM, 0.12 μM, 0.04 μM, 0.01 μM, and 0.005 μM. After incubation in an incubator at 37° C. for 16 h, the absorbance was read at 655 nm using an M5e microplate reader (MD, USA).
The EC50 of the compound was calculated using the software GraphPad Prism (GraphPad Software, USA). The background reading of the detection culture was subtracted from the absorbance readings at 655 nm of all wells of the 96-well plate, the ratio of each well to the negative control well (the well without the compound) was calculated, and then the percentage of the ratio of each well to the positive control well (the well treated with 10 μM positive compound), i.e., the percentage of activity, was calculated. Finally, the sigmoidal dose-response (variable slope) curve between the percentage of activity and the concentration of the compound was calculated using the software GraphPad Prism to calculate the EC50 of the compound. […]

SMILES	EC50 [nM]
COc1cc(CN2CCNCC2)ccc1Cn1c(SC)nc2c(N)nc3ccccc3c21 [Example 238]	50 to 100
COc1cc(CN2C[C@H]3CN(C)C[C@H]3C2)ccc1Cn1c(SC)nc2c(N)nc3ccccc3c21 [Example 239]	50 to 100
COc1cc(CNC(C)C)ccc1Cn1c(SC)nc2c(N)nc3ccccc3c21 [Example 241]	50 to 100
COc1cc(CN2CC(O)C2)ccc1Cn1c(SC)nc2c(N)nc3ccccc3c21 [Example 244]	50 to 100
COc1cc(OCCN(C)C)ccc1Cn1c(SC)nc2c(N)nc3ccccc3c21 [Example 248]	50 to 100
CCCCOc1nc(N)c2c(n1)N(Cc1ccc(Oc3ccc(CNC)cc3)cc1)CC(=O)N2 [Example 252, 4-amino-2-butoxy-8-(4-(4-((methylamino)methyl)phenoxy)benzyl)-7,8-dihydropteridin-6(5H)-one]	< 50

Second part, the molecule after the results:

EC50 [nM]	SMILES
50 to 100	COc1cc(CN2CC[C@H](O)C2)ccc1Cn1c(SC)nc2c(N)nc3ccccc3c21 [Example 245]
50 to 100	COc1cc(C2CCN(C)CC2)ccc1Cn1c(SC)nc2c(N)nc3ccccc3c21 [Example 246]
50 to 100	COc1cc(CN2CCN(C)CC2)ccc1Cn1c(SC)nc2c(N)nc3ccccc3c21 [Example 247]
